Assay results from EP3685668B1, “COMPOSITION COMPRISING ACIBENZOLAR-S-METHYL AS EFFECTIVE INGREDIENT FOR CONTROLLING BURSAPHELENCHUS XYLOPHILUS DISEASE AND METHOD FOR CONTROLLING BURSAPHELENCHUS XYLOPHILUS USING SAME” (Industry Foundation of Chonnam National University, priority 2017, dated 2019).

Assays:
Assay type in all cases: cell-based
Extensin = test: qRT-PCR expression of induced resistance gene in pine tree callus; conditions: 200 µg/mℓ, 24 hours
Procedure: (§1) For in vitro analysis of induced resistance, the expression of PR genes and other plant defense-related genes was determined, which are evolved in various defense mechanisms including induced resistance. The primers of sixteen induced resistance-related genes of pine tree used in this invention were listed in the below and elongation factor_1 alpha were used as a reference gene. [Table 4] The primer list of defense resistance-related genes
(§2) After the treatment with 200 µg / mℓ of candidates of the selected induced resistance material, expression of the induced resistance-related gene in pine callus was determined by qRT-PCR using the primer pairs of defense resistance-related genes in Table 4. As a candidate group of an induced resistance material in pine tree, acibenzolar-S-methyl (ASM), TDL (Tiadinil), ITL (Isotianil), PBZ (Probenzole), AZO (Azoxystrobin), VMA (Validamycin A), MeJA (Methyl jasmonate), BABA (DL-3-aminobutyric acid), 2,3-BDO (2,3-Butanediol), GABA (r-Aminobutyric acid), glucan (Glucan), ER (Ergosterol), and AZA (Azelaic acid) were used. For the in vitro analysis of the expression of induced resistance gene in pine callus, the selected induced resistance materials were applied with 500 µℓ of LM liquid medium on a surface of pine tree callus (100 mg) in 12-well microplate to give final concentration of 200 µg/mℓ. Then, the callus surface was sufficiently reacted for 24 hours with the candidate of pine tree induced resistance material by shaking at 50 rpm in a 25 °C shaking incubator under dark condition. RNAs were extracted from the callus after completion of the reaction with an induced resistance material, followed by synthesis of cDNAs. Then, by carrying out qRT-PCR, the expression of induced resistance genes was determined. [Table 5] Expression of induced resistance gene in pine tree callus by TDL, PBZ, ASM, ITL, AZO, VMA, glucan, and AZA
(§3) Based on the results of assay using young plants and gene expression by selected induce resistance materials, it seemed that acibenzolar-S-methyl had the most excellent effect. Thus, the following tests were carried out using acibenzolar-S-methyl only. Expression of the induced resistance genes at different culture time after the chemical treatment was examined. For the in vitro assay, LM medium containing pine tree callus was treated with acibenzolar-S-methyl at concentration of 200 µg / mℓ, followed by reaction for 1 day, 7 days, or 14 days in a 25°C shaking incubator under dark condition. RNAs were extracted from the callus after the reaction followed by synthesis of cDNAs. Then, by carrying out qRT-PCR, the expression of the induced resistance genes was determined. Depending on reaction time after the treatment, i.e., after 1 day, 7 days, or 14 days, the expression of the obtained induced resistance genes was examined. As a result of the in vitro callus assay depending on reaction time after the treatment with acibenzolar-S-methyl, the expression of the induced resistance-related genes is the highest at 1 day after the treatment with acibenzolar-S-methyl and gradually diminished over time, as it is shown in Table 7. In this regard, it is contemplated that the expression of genes acquired by acibenzolar-S-methyl is not maintained in highly expressed state until the pathogen invasion and just memorized with at minimum level so that the energy consumption by plant can be efficiently managed. [Table 7] Expression of induced resistance gene in pine tree callus by acibenzolar-S-methyl depending on reaction time
(§4) To have an in vitro assay according to different methods of treatment with acibenzolar-S-methyl, two separate treatment methods, i.e., surface treatment (spraying treatment) of pine tree callus and direct application of the induced resistance material to an LM medium containing pine tree callus, were performed. […]

PR_4 family = test: as above; conditions: 200 µg/mℓ, 24 hours
Procedure: as §1, §2, §3, §4

Antipeptide = test: as above; conditions: 200 µg/mℓ, 24 hours
Procedure: as §1, §2, §3, §4

Xyloglucan = test: as above; conditions: 200 µg/mℓ, 24 hours
Procedure: as §1, §2, §3, §4

Heat shock 70 = test: as above; conditions: 200 µg/mℓ, 24 hours
Procedure: as §1, §2, §3, §4

PR_2 family = test: as above; conditions: 200 µg/mℓ, 24 hours
Procedure: as §1, §2, §3, §4

PR_1b family = test: as above; conditions: 200 µg/mℓ, 24 hours
Procedure: as §1, §2, §3, §4

PR_3 family class 1 = test: as above; conditions: 200 µg/mℓ, 24 hours
Procedure: as §1, §2, §3, §4

PR_5 family = test: as above; conditions: 200 µg/mℓ, 24 hours
Procedure: as §1, §2, §3, §4

PR_10 family = test: as above; conditions: 200 µg/mℓ, 24 hours
Procedure: as §1, §2, §3, §4

Hydroxyproline = test: as above; conditions: 200 µg/mℓ, 24 hours
Procedure: as §1, §2, §3, §4

Metallothionein = test: as above; conditions: 200 µg/mℓ, 24 hours
Procedure: as §1, §2, §3, §4

PR_3 family class 4 = test: as above; conditions: 200 µg/mℓ, 24 hours
Procedure: as §1, §2, §3, §4

PR_9 family = test: as above; conditions: 200 µg/mℓ, 24 hours
Procedure: as §1, §2, §3, §4

[1] = tested on: induced resistance-related genes; test: qRT-PCR expression of induced resistance genes in pine tree callus, overall statement; conditions: 200 µg/mℓ
Procedure: as §1, §2

**Q.** How did the “Expression of induced resistance gene, Extensin” value (Extensin) turn out when `NCCCC(=O)O` [GABA, r-Aminobutyric acid] was run?
**A.** Its value is 1.83.

**Q.** What about the “Expression of induced resistance gene, PR_4 family” value (PR_4 family) of the same molecule?
**A.** Its value is 1.95.

**Q.** And the “Expression of induced resistance gene, Antipeptide” value (Antipeptide)?
**A.** Its value is 1.13.

**Q.** What about the “Expression of induced resistance gene, Xyloglucan” value (Xyloglucan) of the same molecule?
**A.** The value was 3.46.

**Q.** What about the “Expression of induced resistance gene, Heat shock 70” value (Heat shock 70) of the same molecule?
**A.** The value was 2.58.

**Q.** What about the “Expression of induced resistance gene, PR_2 family” value (PR_2 family) of the same molecule?
**A.** The value was 1.66.

**Q.** What about the “Expression of induced resistance gene, PR_1b family” value (PR_1b family) of the same molecule?
**A.** Its value is 1.78.

**Q.** What about the “Expression of induced resistance gene, PR_3 family class 1” value (PR_3 family class 1) of the same molecule?
**A.** The value was 3.07.

**Q.** What about the “Expression of induced resistance gene, PR_5 family” value (PR_5 family) of the same molecule?
**A.** The value was 3.78.

**Q.** What about the “Expression of induced resistance gene, PR_10 family” value (PR_10 family) of the same molecule?
**A.** The value was 1.57.

**Q.** What about the “Expression of induced resistance gene, Hydroxyproline” value (Hydroxyproline) of the same molecule?
**A.** The value was 5.98.

**Q.** And the “Expression of induced resistance gene, Metallothionein” value (Metallothionein)?
**A.** The value was 0.92.

**Q.** What about the “Expression of induced resistance gene, PR_3 family class 4” value (PR_3 family class 4) of the same molecule?
**A.** Its value is 8.75.

**Q.** And the “Expression of induced resistance gene, PR_9 family” value (PR_9 family)?
**A.** The value was 0.7.

**Q.** What about the “expression of induced resistance-related genes is induced overall” value [1] of the same molecule?
**A.** Its value is at least 2 times.

**Q.** Which “Expression of induced resistance gene, Extensin” value (Extensin) does the source give for `OCC1=C[C@@H](N[C@H]2C[C@H](CO)[C@@H](O[C@H]3O[C@@H](CO)[C@H](O)[C@@H](O)[C@@H]3O)[C@H](O)[C@H]2O)[C@H](O)[C@@H](O)[C@@H]1O` [VMA, Validamycin A] here?
**A.** Its value is 0.66.

**Q.** And the “Expression of induced resistance gene, PR_4 family” value (PR_4 family)?
**A.** Its value is 1.43.

**Q.** What about the “Expression of induced resistance gene, Antipeptide” value (Antipeptide) of the same molecule?
**A.** The value was 2.36.

**Q.** And the “Expression of induced resistance gene, Xyloglucan” value (Xyloglucan)?
**A.** Its value is 1.99.

**Q.** What about the “Expression of induced resistance gene, Heat shock 70” value (Heat shock 70) of the same molecule?
**A.** Its value is 2.19.

**Q.** What about the “Expression of induced resistance gene, PR_2 family” value (PR_2 family) of the same molecule?
**A.** Its value is 0.83.

**Q.** And the “Expression of induced resistance gene, PR_1b family” value (PR_1b family)?
**A.** Its value is 0.73.

**Q.** And the “Expression of induced resistance gene, PR_3 family class 1” value (PR_3 family class 1)?
**A.** Its value is 1.67.

**Q.** And the “Expression of induced resistance gene, PR_5 family” value (PR_5 family)?
**A.** The value was 4.66.

**Q.** What about the “Expression of induced resistance gene, PR_10 family” value (PR_10 family) of the same molecule?
**A.** The value was 1.56.

**Q.** What about the “Expression of induced resistance gene, Hydroxyproline” value (Hydroxyproline) of the same molecule?
**A.** The value was 2.31.

**Q.** What about the “Expression of induced resistance gene, Metallothionein” value (Metallothionein) of the same molecule?
**A.** The value was 0.99.

**Q.** And the “Expression of induced resistance gene, PR_3 family class 4” value (PR_3 family class 4)?
**A.** The value was 2.95.

**Q.** And the “Expression of induced resistance gene, PR_9 family” value (PR_9 family)?
**A.** The value was 1.37.

**Q.** What about the “expression of induced resistance-related genes is induced overall” value [1] of the same molecule?
**A.** Its value is at least 2 times.
